The text below walks through data of publication PMC12226970, “A subcellularly targeted photocaged inhibitor for mitochondrial carbonic anhydrase V” (Dalton Transactions (Cambridge, England : 2003), 2025).

This assay addresses T1, bCA-II (Bos taurus, UniProt P00921).
T1 construct: gene CA2
As to the kind of experiment: NPA (4-nitrophenyl acetate) hydrolysis assay with isolated bCA-II after […] nm photodeprotection of PCEM. It is filed as biochemical.

T1 sequence (P00921 2-260): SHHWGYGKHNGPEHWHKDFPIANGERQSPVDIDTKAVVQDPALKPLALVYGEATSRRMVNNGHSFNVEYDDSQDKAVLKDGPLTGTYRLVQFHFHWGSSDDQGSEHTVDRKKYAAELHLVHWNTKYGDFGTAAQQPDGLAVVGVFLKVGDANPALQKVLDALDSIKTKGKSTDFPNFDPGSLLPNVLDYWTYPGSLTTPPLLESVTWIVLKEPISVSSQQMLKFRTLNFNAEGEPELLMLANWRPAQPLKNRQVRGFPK

By IC50 is commonly meant the concentration that inhibits the measured activity by half. Lower therefore signals higher potency. In turn, `NS(=O)(=O)c1nc2ccc(OCCC[n+]3ccccc3)cc2s1` [dPCEM] displayed an IC50 of 2900 nM.
